For this assay, the target named is T1, recombinant human GluN1/GluN2A receptor (Homo sapiens, UniProt Q05586+Q12879).
T1 construct: expressed in transfected cells; host or cells: HEK293, tetracycline-inducible expression
The assay can be described thus: Whole-cell patch clamp of mammalian cells (Syncropatch 384i), NMDA modulation. Format: cell-based. The settings on record: HEK293 cells, human GluN1/GluN2A, glutamate 1 μM / glycine 100 μM, -80 mV, peak amplitude increase; for EC50: read-out: EC50. From the text: Whole-Cell Patch Clamp of Mammalian Cells (Syncropatch 384i (Nanion Technologies))
Whole-cell patch clamp electrophysiology was used to investigate the effects of compounds on GluN1/GluN2A N-methyl-D-aspartate (NMDA) glutamate receptors expressed in mammalian cells.
Human embryonic kidney (HEK293) cells expressing the recombinant human GluN1/GluN2A receptor under the control of a tetracycline-inducible expression system were used. Cells were maintained in Dulbecco's Modified Eagle's Medium (DMEM) with 1% glutamine, 10% Tetracycline System Approved fetal bovine serum (FBS), and NMDA inhibitors. Cells were cultured in a humidified 5% CO2 incubator at 37° C. Cells were induced with 50 ng/ml tetracycline 18-24 hours prior to testing. A cocktail of channel blockers was added to the media to prevent cell death.
Cells were 60-80% confluent at the time of harvest. Cells were detached from the flask TrypLE Enzyme Express (Thermo Fisher) at 37° C., and then cold extracellular solution was added to the flask, followed by incubation at 4° C. and then trituration of the cells. The cell solution was then placed on a shaker on the Syncropatch platform at 10° C. with a shake speed of a minimum 200 rpm for at least 30 minutes prior to testing.
Extracellular (EC) solution (in mM) —140 NaCl, 4 KCl, 5 CaCl2, 10 HEPES, 5 Glucose, pH 7.4 with NaOH. All external solutions contained 0.2% DMSO and 0.01% Kolliphor® EL (C5135, Sigma) throughout the experiment.
Intracellular (IC) solution (in mM) —120 CsF, 10 mM EGTA, 10 NaCl, 10 HEPES, 4 NaATP, 2 MgCl2, pH 7.2 with CsOH.
First, the DMSO Master Plate was prepared, in which the DMSO stock of each test compound was serially diluted in 100% DMSO to 1000× the final assay concentration. Immediately prior to assay testing, the compounds were diluted 1:100 by transferring solutions from the DMSO Mast Plate to the Intermediate Plate pre-filled with EC solution using a Biomek FX automated liquid handling system. Compounds were then diluted further with extracellular solution into two pre-incubation plates—1) compound from the Intermediate Plate was mixed with EC solution at a 1:5 dilution to create a 2× Compound Pre-Incubation Plate which was diluted a further 1:2 when added to the Syncropatch for the initial compound pre-incubation. And 2) compound from the Intermediate plate was mixed with EC solution at a 1:10 Dilution to create the 1× Compound Pre-Incubation Plate, which was used for subsequent compound pre-incubations. Finally, a Compound+Agonist Plate was prepared by mixing compound from the 2× Compound Pre-Incubation Plate with 2× concentration of co-agonists in a 1:1 ratio.
Each experiment sequentially included cell catching, sealing, whole-cell formation, liquid application, recording and data acquisition. Whole-cell patch clamp recordings were performed using multi-hole high resistance chips on the SyncroPatch 384i (Nanion Technologies). A steady-state voltage pulse at -80 mV was applied throughout the assay and a 10 second recording window was triggered around 1 second prior to application of co-agonists. Currents were leak corrected and sampled at 5 kHz.
A fast application was used, in which 5 μl co-agonist was rapidly applied at a speed of 30 μl/s and then rapidly removed from the well. To test for modulator activity, the co-agonists glutamate (1 μM) and glycine (100 μM) were applied three times to show activation reproducibility, followed by 120 seconds pre-incubation of test compound alone. The test compound was then re-applied in the presence of co-agonists two times. This was followed by application of the agonist alone, although test compound may not be fully washed from the well prior to this step. Finally, a saturating concentration of co-agonists (glutamate 100 μM/glycine 100 μM) was applied.
The voltage protocol generation data collection and analysis were performed on PatchControll384 and DataControll384. […]
In general terms: Patch clamp records ionic current or voltage across a cell membrane.

Like-named read-outs stand apart in the source and are kept apart here.

The source of these data is patent US20240368214A1, “POSITIVE NMDA-MODULATING COMPOUNDS AND METHODS OF USE THEREOF” (SAGE THERAPEUTICS, INC., priority 2021, published 2024).

Broadly, the Emax is the maximal effect, on the per cent scale that the assay sets. Broadly, the EC50 is the concentration that produces a half-maximal response.

T1 sequence (Q12879 23-1464, other chains not shown): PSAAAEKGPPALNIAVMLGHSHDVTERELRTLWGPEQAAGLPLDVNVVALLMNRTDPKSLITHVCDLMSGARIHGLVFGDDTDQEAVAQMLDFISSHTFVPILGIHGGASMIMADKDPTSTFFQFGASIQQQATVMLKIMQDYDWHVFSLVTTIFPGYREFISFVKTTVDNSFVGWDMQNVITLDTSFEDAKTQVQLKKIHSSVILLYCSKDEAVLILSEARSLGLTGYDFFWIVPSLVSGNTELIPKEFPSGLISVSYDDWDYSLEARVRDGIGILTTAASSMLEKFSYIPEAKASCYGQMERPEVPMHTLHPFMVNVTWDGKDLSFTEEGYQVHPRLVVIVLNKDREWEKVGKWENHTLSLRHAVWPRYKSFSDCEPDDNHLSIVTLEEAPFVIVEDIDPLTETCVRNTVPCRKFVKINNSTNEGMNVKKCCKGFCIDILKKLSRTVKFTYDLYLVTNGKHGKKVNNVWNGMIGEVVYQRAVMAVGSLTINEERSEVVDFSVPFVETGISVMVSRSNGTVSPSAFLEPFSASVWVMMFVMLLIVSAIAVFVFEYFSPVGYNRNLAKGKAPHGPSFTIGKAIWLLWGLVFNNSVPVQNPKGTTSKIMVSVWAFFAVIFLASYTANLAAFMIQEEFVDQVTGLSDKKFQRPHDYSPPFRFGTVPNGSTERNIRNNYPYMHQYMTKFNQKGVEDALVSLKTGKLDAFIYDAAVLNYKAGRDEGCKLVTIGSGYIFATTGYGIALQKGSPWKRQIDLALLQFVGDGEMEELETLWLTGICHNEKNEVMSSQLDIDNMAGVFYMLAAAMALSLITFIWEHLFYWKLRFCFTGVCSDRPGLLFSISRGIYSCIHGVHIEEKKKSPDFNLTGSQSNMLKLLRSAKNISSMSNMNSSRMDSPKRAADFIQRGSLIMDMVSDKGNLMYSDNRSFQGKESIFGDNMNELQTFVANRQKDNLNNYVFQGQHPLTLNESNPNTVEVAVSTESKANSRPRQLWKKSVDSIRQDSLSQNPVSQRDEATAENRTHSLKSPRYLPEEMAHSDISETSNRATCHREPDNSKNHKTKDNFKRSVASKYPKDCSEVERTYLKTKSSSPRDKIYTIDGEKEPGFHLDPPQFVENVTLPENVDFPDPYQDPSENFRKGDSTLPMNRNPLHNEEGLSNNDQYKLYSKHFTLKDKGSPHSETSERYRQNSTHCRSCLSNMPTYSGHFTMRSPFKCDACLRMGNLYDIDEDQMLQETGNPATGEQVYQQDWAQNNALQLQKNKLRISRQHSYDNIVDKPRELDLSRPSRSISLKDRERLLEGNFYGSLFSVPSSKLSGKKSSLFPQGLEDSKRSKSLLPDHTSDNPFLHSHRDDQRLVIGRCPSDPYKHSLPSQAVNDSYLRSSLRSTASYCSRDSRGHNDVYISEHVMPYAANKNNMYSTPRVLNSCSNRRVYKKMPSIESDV

For the compound `CC[C@]1(O)CC[C@@]2(C)C(=CC[C@H]3[C@@H]4CC[C@H]([C@@H](CCCC(C)(C)O)OC)[C@@]4(C)CC[C@@H]32)C1` [Compound A-12, (3S,8S,9S,10R,13S,14S,17S)-3-ethyl-17-((R)-5-hydroxy-1-methoxy-5-methylhexyl)-10,13-dimethyl-2,3,4,7,8,9,10,11,12,13,14,15,16,17-tetradecahydro-1H-cyclopenta[a]phenanthren-3-ol], under “Table A-2”, the Emax was in the range of 100 to 200% and the EC50 fell in the range of 1 to 100 nM. As for `CC[C@]1(O)CC[C@@]2(C)C(=CC[C@H]3[C@@H]4CC[C@H]([C@@H](CC[C@@](C)(O)C(F)(F)F)OC)[C@@]4(C)CC[C@@H]32)C1` [Compound A-13, (3S,8S,9S,10R,13S,14S,17S)-3-ethyl-10,13-dimethyl-17-((1R,4R)-5,5,5-trifluoro-4-hydroxy-1-methoxy-4-methylpentyl)-2,3,4,7,8,9,10,11,12,13,14,15,16,17-tetradecahydro-1H-cyclopenta[a]phenanthren-3-ol], for the setting “Table A-2”, the Emax is more than 200% and the EC50 is 500 to 1000 nM. Take `CC[C@]1(O)CC[C@@]2(C)C(=CC[C@H]3[C@@H]4CC[C@H]([C@@H](CC[C@](C)(O)C(F)(F)F)OC)[C@@]4(C)CC[C@@H]32)C1` [Compound A-14, (3S,8S,9S,10R,13S,14S,17S)-3-ethyl-10,13-dimethyl-17-((1R,4S)-5,5,5-trifluoro-4-hydroxy-1-methoxy-4-methylpentyl)-2,3,4,7,8,9,10,11,12,13,14,15,16,17-tetradecahydro-1H-cyclopenta[a]phenanthren-3-ol]: for the setting “Table A-2”, the Emax was more than 200% and the EC50 lay in the range of 1 to 100 nM. Taken in the same sequence, the figures for `CC[C@]1(O)CC[C@@]2(C)C(=CC[C@H]3[C@@H]4CC[C@H]([C@@H](CC[C@@H](O)C(C)C)OC)[C@@]4(C)CC[C@@H]32)C1` [Compound A-15, (3S,8S,9S,10R,13S,14S,17S)-3-ethyl-17-((1R,4R)-4-hydroxy-1-methoxy-5-methylhexyl)-10,13-dimethyl-2,3,4,7,8,9,10,11,12,13,14,15,16,17-tetradecahydro-1H-cyclopenta[a]phenanthren-3-ol] were more than 200% and 1 to 100 nM. For `CC[C@]1(O)CC[C@@]2(C)C(=CC[C@H]3[C@@H]4CC[C@H]([C@@H](CC[C@H](O)C(C)C)OC)[C@@]4(C)CC[C@@H]32)C1` [Compound A-16, (3S,8S,9S,10R,13S,14S,17S)-3-ethyl-17-((1R,4S)-4-hydroxy-1-methoxy-5-methylhexyl)-10,13-dimethyl-2,3,4,7,8,9,10,11,12,13,14,15,16,17-tetradecahydro-1H-cyclopenta[a]phenanthren-3-ol], where the note is “Table A-2”, the Emax was more than 200% and the EC50 lay within 1 to 100 nM. In the case of `CC[C@]1(O)CC[C@@]2(C)[C@@H](CC[C@@H]3[C@@H]2CC[C@]2(C)[C@@H]([C@H](CC[C@H](O)C(C)C)C(F)(F)F)CC[C@@H]32)C1` [Compound A-17, (3S,5S,8R,9S,10S,13S,14S,17R)-3-ethyl-10,13-dimethyl-17-((2S,5S)-1,1,1-trifluoro-5-hydroxy-6-methylheptan-2-yl)hexadecahydro-1H-cyclopenta[a]phenanthren-3-ol], where the note is “Table A-2”, the EC50 was more than 1000 nM.

Take `CC[C@]1(O)CC[C@@]2(C)[C@@H](CC[C@@H]3[C@@H]2CC[C@]2(C)[C@@H]([C@H](CCCC(C)(C)O)C(F)(F)F)CC[C@@H]32)C1` [Compound A-18, (3S,5S,8R,9S,10S,13S,14S,17R)-3-ethyl-10,13-dimethyl-17-((S)-1,1,1-trifluoro-6-hydroxy-6-methylheptan-2-yl)hexadecahydro-1H-cyclopenta[a]phenanthren-3-ol]: where the note is “Table A-2”, the EC50 is more than 1000 nM. Same read-out and setting: for `CC[C@@H](CCCC(C)(C)O)[C@H]1CC[C@H]2[C@@H]3CC[C@H]4C[C@](O)(CC)CC[C@]4(C)[C@H]3CC[C@]12C` [Compound A-20, (3S,5S,8R,9S,10S,13R,14S,17R)-3-ethyl-17-((S)-7-hydroxy-7-methyloctan-3-yl)-10,13-dimethylhexadecahydro-1H-cyclopenta[a]phenanthren-3-ol] the value was more than 1000 nM; for `CC[C@]1(O)CC[C@@]2(C)[C@@H](CC[C@@H]3[C@@H]2CC[C@]2(C)[C@@H]([C@@H](CC[C@@](C)(O)C(F)(F)F)OC)CC[C@@H]32)C1` [Compound A-23, (3S,5S,8R,9S,10S,13S,14S,17S)-3-ethyl-10,13-dimethyl-17-((1R,4R)-5,5,5-trifluoro-4-hydroxy-1-methoxy-4-methylpentyl) hexadecahydro-1H-cyclopenta[a]phenanthren-3-ol], 500 to 1000 nM. The same measure, in the same setting: the figure for `CC[C@]1(O)CC[C@@]2(C)[C@@H](CC[C@@H]3[C@@H]2CC[C@]2(C)[C@@H]([C@@H](CC[C@](C)(O)C(F)(F)F)OC)CC[C@@H]32)C1` [Compound A-24, (3S,5S,8R,9S,10S,13S,14S,17S)-3-ethyl-10,13-dimethyl-17-((1R,4S)-5,5,5-trifluoro-4-hydroxy-1-methoxy-4-methylpentyl) hexadecahydro-1H-cyclopenta[a]phenanthren-3-ol] is 100 to 500 nM.

Take `CC[C@]1(O)CC[C@@]2(C)[C@@H](CC[C@H]3[C@@H]4[C@@H]5C[C@@H]5[C@H]([C@H](C)CCCC(C)(C)O)[C@@]4(C)CC[C@@H]32)C1` [Compound B-1, (2S,4aS,4bS,6aR,7S,7aS,8aR,8bS,8cR,10aS)-2-ethyl-7-((R)-6-hydroxy-6-methylheptan-2-yl)-4a,6a-dimethyloctadecahydrocyclopropa[4,5]cyclopenta[1,2-a]phenanthren-2-ol]: for the setting “Table B-2”, the Emax is more than 200% and the EC50 was in the range of 1 to 100 nM. Taken in the same sequence, the figures for `CC[C@]1(O)CC[C@@]2(C)[C@@H](CC[C@H]3[C@@H]4[C@@H]5C[C@@H]5[C@H]([C@H](C)CC[C@@](C)(O)C(F)(F)F)[C@@]4(C)CC[C@@H]32)C1` [Compound B-2, (2S,4aS,4bS,6aR,7S,7aS,8aR,8bS,8cR,10aS)-2-ethyl-4a,6a-dimethyl-7-((2R,5R)-6,6,6-trifluoro-5-hydroxy-5-methylhexan-2-yl)octadecahydrocyclopropa[4,5]cyclopenta[1,2-a]phenanthren-2-ol] were more than 200% and 100 to 500 nM.

`CC[C@]1(O)CC[C@@]2(C)[C@@H](CC[C@H]3[C@@H]4[C@@H]5C[C@@H]5[C@H]([C@H](C)CC[C@](C)(O)C(F)(F)F)[C@@]4(C)CC[C@@H]32)C1` [Compound B-3, (2S,4aS,4bS,6aR,7S,7aS,8aR,8bS,8cR,10aS)-2-ethyl-4a,6a-dimethyl-7-((2R,5S)-6,6,6-trifluoro-5-hydroxy-5-methylhexan-2-yl)octadecahydrocyclopropa[4,5]cyclopenta[1,2-a]phenanthren-2-ol]: under “Table B-2”, the Emax was more than 200% and the EC50 is 1 to 100 nM. Taken in the same sequence, the figures for `CC[C@]1(O)CC[C@@]2(C)[C@@H](CC[C@H]3[C@@H]4[C@H]5C[C@H]5[C@H]([C@H](C)CCCC(C)(C)O)[C@@]4(C)CC[C@@H]32)C1` [Compound B-4, (2S,4aS,4bS,6aR,7S,7aR,8aS,8bS,8cR,10aS)-2-ethyl-7-((R)-6-hydroxy-6-methylheptan-2-yl)-4a,6a-dimethyloctadecahydrocyclopropa[4,5]cyclopenta[1,2-a]phenanthren-2-ol] were more than 200% and 1 to 100 nM.
